# Marks after values point to notes of the source that are not given here.
# How the values were obtained:
# LNCaP xenograft tumor [1] = test: Ex vivo biodistribution in LNCaP xenograft tumor-bearing mice; details: for Tumor uptake relative to [68Ga]Ga-PSMA-HBED-CC: at the time of maximum tumor uptake; for Time p.i. of max. LNCaP tumor uptake: biodistribution at 1, 2, 4 h; for Max. LNCaP Tumor Uptake: biodistribution; for Max. LNCaP Tumor Uptake / Tumor uptake: n=5
# Procedure: (§1) Inoculation of mice with xenografts. All animal studies were approved by the Institutional Animal Care and Use Committee of Weill Cornell Medicine and were undertaken in accordance with the guidelines set forth by the USPHS Policy on Humane Care and Use of Laboratory Animals. Animals were housed under standard conditions in approved facilities with 12 h light/dark cycles. Food and water was provided ad libitum throughout the course of the studies. Male inbred athymic nu/nu mice were purchased from The Jackson Laboratory. For inoculation in mice, LNCaP cells were suspended at 4×10^7 cells/mL in a 1:1 mixture of PBS:Matrigel (BD Biosciences). Each mouse was injected in the left flank with 0.25 mL of the cell suspension. The mice were imaged when the tumors reached approximately 200-400 mm^3, while biodistributions were conducted when tumors were in the range 100-400 mm^3.
# Biodistribution. LNCaP xenograft tumor-bearing mice (n=5 per time point) were injected via the tail vein with a bolus injection of 370 kBq (10 μCi) of either [^18F]RPS-040 or [^18F]RPS-041. The specific activity of the compounds was […], respectively. The mice were euthanized by asphyxiation under isofluorane at 1 h, 2 h and 4 h post injection. An additional set of mice (n=5) was co-administered [^18F]RPS-040 (370 kBq; 10 μCi) and 2-PMPA (approx. 250 μg; 10 mg/kg) and sacrificed at 1 h post injection to determine the uptake specificity. A full biodistribution study was conducted on all mice, and tissues were excised, weighed and counted in an automated γ-counter. Tissue time-activity values were expressed as percentage injected dose per gram of tissue (% ID/g). Statistical comparisons were performed using the standard Student's t-test for a 95% confidence interval.
# LNCaP xenograft tumor [2] = test: microPET/CT imaging of LNCaP xenograft tumor-bearing mice; type: in vivo; details: for Max. LNCaP Tumor Uptake: image derived calculation of tumor uptake (microPET/CT), at time of maximum uptake; for Time p.i. of max. LNCaP tumor uptake: microPET/CT imaging at 1, 2, 4, 6 h
# Procedure: as §1
# Imaging. […] Specific activity was greater than […]. The mice were imaged by pPET/CT (Inveon™; Siemens Medical Solutions, Inc.) at 1 h, 2 h, 4 h, and 6 h post-injection ([^18F]fluorinated compounds) or 1 h and 3 h post-injection ([^68Ga]Ga-PSMA-HBED-CC). Total acquisition time was thirty minutes, and a CT scan was obtained either immediately before or immediately after the acquisition for both anatomical co-registration and attenuation correction. The data were reconstructed using the commercial Inveon™ software supplied by the vendor. Tumor uptake was estimated by drawing a region of interest (ROI).
# PSMA on LNCaP cells = target: T1, PSMA on LNCaP cells (Homo sapiens, UniProt Q04609); test: Competitive binding assay against 99mTc-MIP-1427 for binding to PSMA on LNCaP cells; details: non-radioactive fluorine-containing ligands, 1 nM 99mTc-MIP-1427, 1 hour
# T1 construct: host or cells: LNCaP
# T1 sequence (Q04609 whole entry): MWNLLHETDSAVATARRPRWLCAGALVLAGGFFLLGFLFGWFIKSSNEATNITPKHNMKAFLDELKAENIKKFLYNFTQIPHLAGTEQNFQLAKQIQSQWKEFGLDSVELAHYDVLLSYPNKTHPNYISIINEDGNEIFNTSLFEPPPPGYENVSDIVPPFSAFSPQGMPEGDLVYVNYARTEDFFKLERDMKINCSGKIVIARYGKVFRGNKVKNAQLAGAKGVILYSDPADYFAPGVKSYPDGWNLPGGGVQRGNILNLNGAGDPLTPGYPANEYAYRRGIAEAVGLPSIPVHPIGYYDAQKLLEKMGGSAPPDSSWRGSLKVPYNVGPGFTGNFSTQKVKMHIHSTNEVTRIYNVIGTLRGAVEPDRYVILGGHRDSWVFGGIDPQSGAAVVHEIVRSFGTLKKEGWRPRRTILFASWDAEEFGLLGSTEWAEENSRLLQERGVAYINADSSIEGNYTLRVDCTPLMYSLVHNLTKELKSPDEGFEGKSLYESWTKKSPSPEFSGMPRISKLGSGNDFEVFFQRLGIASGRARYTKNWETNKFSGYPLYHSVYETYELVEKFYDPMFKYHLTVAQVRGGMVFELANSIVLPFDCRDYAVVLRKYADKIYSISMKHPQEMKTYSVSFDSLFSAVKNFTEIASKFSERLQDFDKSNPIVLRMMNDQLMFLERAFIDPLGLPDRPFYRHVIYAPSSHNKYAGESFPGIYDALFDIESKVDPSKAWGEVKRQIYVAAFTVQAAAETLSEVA
# Procedure: Cell Culture. The human prostate cancer cell line, LNCaP, was obtained from the American Type Culture Collection. Cell culture supplies were from Invitrogen unless otherwise noted. LNCaP cells were maintained in RPMI-1640 medium supplemented with 10% fetal bovine serum (Hyclone), 4 mM L-glutamine, 1 mM sodium pyruvate, 10 mM N-2-hydroxyethylpiperazine-N-2-ethanesulfonic acid (HEPES), 2.5 mg/mL D-glucose, and 50 μg/mL gentamicin in a humidified incubator at 37° C./5% C02. Cells were removed from flasks for passage or for transfer to 12-well assay plates by incubating them with 0.25% trypsin/ethylenediaminetetraacetic acid (EDTA).
# In vitro determination of IC50. IC50 values of the non-radioactive fluorine-containing ligands were determined by screening in a multi-concentration competitive binding assay against ^99mTc-((7S,12S,16S)-1-(1-(carboxymethyl)-1H-imidazol-2-yl)-2-((1-(carboxymethyl)-1H-imidazol-2-yl)methyl)-9,14-dioxo-2,8,13,15-tetraazaoctadecane-7,12,16,18-tetracarboxylic acid technetium tricarbonyl complex) (^99mTc-MIP-1427) for binding to PSMA on LNCaP cells, according to methods previously described. See Hillier S M, Maresca K P, Lu G, Merkin R D, Marquis J C, Zimmerman C N, Eckelman W C, Joyal J L, Babich J W. 99mTc-Labeled Small-Molecule Inhibitors of Prostate-Specific Membrane Antigen for Molecular Imaging of Prostate Cancer. J. Nucl. Med. 2013, 54, 1369-1376, incorporated herein by reference. The LNCaP cells were plated 48 hours prior to the experiment to achieve a density of approximately 5×10^5 cells/well (in triplicate) in RPMI-1640 medium supplemented with 0.25% bovine serum albumin prior to performing the assay. LNCaP cells were incubated for 1 hour with 1 nM ^99mTc-MIP-1427 in serum free RPMI-1640 medium in the presence of 1-10,000 nM test compounds. Radioactive incubation media was then removed by pipette and the cells were washed twice using 1 mL ice-cold HEPES buffer. Cells were harvested from the plates and transferred to tubes for radioactive counting using a Packard Cobra II Gamma Counter. IC50 values were determined by non-linear regression using GraphPad Prism software.
# LNCaP tumor xenografts = details: 1 h post injection, reported; cited from earlier work
# [3] = 1 h post injection, co-administered with 2-PMPA (blocked)
Structure (SMILES),Tumor-to-blood ratio (LNCaP xenograft tumor [1]; 1 h post injection),Tumor-to-blood ratio relative to [68Ga]Ga-PSMA-HBED-CC (LNCaP xenograft tumor [1]; 1 h post injection),Tumor-to-kidney ratio (contrast) relative to [68Ga]Ga-PSMA-HBED-CC (LNCaP xenograft tumor [1]; 1 h post injection),Uptake in the kidneys (LNCaP xenograft tumor [1]; 2 h post injection) [% ID/g],Uptake in the liver (LNCaP xenograft tumor [1]; 2 h post injection) [% ID/g],Uptake in the spleen (LNCaP xenograft tumor [1]; 2 h post injection) [% ID/g],Tumor-to-blood ratio (LNCaP xenograft tumor [1]; 4 h post injection),Tumor uptake relative to [68Ga]Ga-PSMA-HBED-CC (LNCaP xenograft tumor [1]),Time p.i. of max. LNCaP tumor uptake (LNCaP xenograft tumor [1]) [h],Max. LNCaP Tumor Uptake (LNCaP xenograft tumor [1]; 2 h post injection),Max. LNCaP Tumor Uptake (LNCaP xenograft tumor [2]),IC50 (PSMA on LNCaP cells) [nM],Time p.i. of max. LNCaP tumor uptake (LNCaP xenograft tumor [2]) [h],also measured
"O=C(O)CC[C@H](NC(=O)N[C@@H](CCCCNC(=O)Nc1cccc(OCc2cn(CCF)nn2)c1)C(=O)O)C(=O)O [RPS-043, (((S)-1-Carboxy-5-(3-(3-((1-(2-fluoroethyl)-1H-1,2,3-triazol-4-yl)methoxy)phenyl)ureido)pentyl)carbamoyl)-L-glutamic acid]",,,,,,,,,,,9.04 ± 1.88^c % ID/g,36.5,2,
"O=C(O)CC[C@H](NC(=O)N[C@@H](CCCCNC(=O)Nc1ccc(OCc2cn(CCF)nn2)cc1)C(=O)O)C(=O)O [RPS-038, (((S)-1-Carboxy-5-(3-(4-((1-(2-fluoroethyl)-1H-1,2,3-triazol-4-yl)methoxy)phenyl)ureido)pentyl)carbamoyl)-L-glutamic acid]",,,,,,,,,,,8.87 ± 0.64^c % ID/g,21.3,2,
"O=C(O)CCC(NC(=O)NC(CCCCNC(=O)c1ccc(F)nc1)C(=O)O)C(=O)O (stereo not shown) [DCFPyL, 2-(3-{1-Carboxy-5-[(6-fluoropyridine-3-carbonyl)-amino]-pentyl}-ureido)-pentanedioic acid, reference compound]",,,,,,,,,,,5.71 ± 0.61^c % ID/g,,1,Tumor washout (LNCaP xenograft tumor [2]; microPET/CT imaging up to 6 h post injection): rapid tumor washout; SUVmax (LNCaP tumor xenografts): 1.1±0.1

# More lines, main results first:
Tumor-to-blood ratio (LNCaP xenograft tumor [1]; 1 h post injection),Tumor-to-blood ratio relative to [68Ga]Ga-PSMA-HBED-CC (LNCaP xenograft tumor [1]; 1 h post injection),Tumor-to-kidney ratio (contrast) relative to [68Ga]Ga-PSMA-HBED-CC (LNCaP xenograft tumor [1]; 1 h post injection),Uptake in the kidneys (LNCaP xenograft tumor [1]; 2 h post injection) [% ID/g],Uptake in the liver (LNCaP xenograft tumor [1]; 2 h post injection) [% ID/g],Uptake in the spleen (LNCaP xenograft tumor [1]; 2 h post injection) [% ID/g],Tumor-to-blood ratio (LNCaP xenograft tumor [1]; 4 h post injection),Tumor uptake relative to [68Ga]Ga-PSMA-HBED-CC (LNCaP xenograft tumor [1]),Time p.i. of max. LNCaP tumor uptake (LNCaP xenograft tumor [1]) [h],Max. LNCaP Tumor Uptake (LNCaP xenograft tumor [1]; 2 h post injection),Max. LNCaP Tumor Uptake (LNCaP xenograft tumor [2]),IC50 (PSMA on LNCaP cells) [nM],Time p.i. of max. LNCaP tumor uptake (LNCaP xenograft tumor [2]) [h],Structure (SMILES),also measured
20.78±7.87,more than two-fold,twelve-fold greater,23.93±5.45,2.51±0.21,1.13±0.47,118.4±69.4,nearly two-fold greater,2,10.86 ± 1.03^ % ID/g,12.51 % ID/g,3.2,,"O=C(O)CC[C@H](NC(=O)N[C@@H](CCCCNC(=O)Nc1ccc(-c2cn(CCF)nn2)cc1)C(=O)O)C(=O)O [RPS-041, (((S)-1-Carboxy-5-(3-(4-(1-(2-fluoroethyl)-1H-1,2,3-triazol-4-yl)phenyl)ureido)pentyl)carbamoyl)-L-glutamic acid]","Contrast (tumor-to-background) relative to [18F]RPS-040 (LNCaP xenograft tumor [1]; 2 h post injection): two-fold greater; Max. LNCaP Tumor Uptake (LNCaP xenograft tumor [1]; 2 h post injection, listed as [^18F]RPS-041): 10.86±1.03 % ID/g"
28.8±8.06,three-fold greater,ten,60.94±8.06,4.72±0.93,3.23±1.26,92.93±75.67,more than two-fold greater,2,14.30 ± 2.49^ % ID/g,14.30 % ID/g,7,,"O=C(O)CC[C@H](NC(=O)N[C@@H](CCCCNC(=O)Nc1cccc(-c2cn(CCF)nn2)c1)C(=O)O)C(=O)O [RPS-040, (((S)-1-Carboxy-5-(3-(3-(1-(2-fluoroethyl)-1H-1,2,3-triazol-4-yl)phenyl)ureido)pentyl)carbamoyl)-L-glutamic acid]","Uptake in the kidneys (LNCaP xenograft tumor [1]; [3]): 5.95±1.65 % ID/g; Uptake in the spleen (LNCaP xenograft tumor [1]; [3]): 0.32±0.05 % ID/g; Tumor uptake (LNCaP xenograft tumor [1]; [3]): 1.75±0.15 % ID/g; Uptake in the kidneys (LNCaP xenograft tumor [1]; 1 h post injection, unblocked): 74.24±10.71 % ID/g; Uptake in the spleen (LNCaP xenograft tumor [1]; 1 h post injection, unblocked): 4.97±1.55 % ID/g; Tumor uptake (LNCaP xenograft tumor [1]; 1 h post injection, unblocked): 12.69±1.56 % ID/g; Max. LNCaP Tumor Uptake (LNCaP xenograft tumor [1]; 2 h post injection, listed as [^18F]RPS-040): 14.30±2.49 % ID/g"

# Reference: patent US12679812B2, “18F-labeled triazole containing PSMA inhibitors” (Cornell University, priority 2016, dated 2026)
